Measurements reported in patent US11975009B2, “Use of zinc porphyrin as an antimicrobial” (ZNABLE LLC, priority 2022, dated 2024).

Legend:
pqsA mutant biofilms = conditions: mutant with little to no eDNA; cited from earlier work
[1] = test system: PsA biofilms and planktonic cells; conditions: cited from earlier work
PsA = assay: Activity of extant antibiotics together with ZnPor (II); conditions: pre-treated by ZnPor (II)

Compound | effect on pqsA mutant biofilms (pqsA mutant biofilms) | toxicity to bacterial cells ([1]; absence of photoactivation) | effect on antibiotic sensitivity of biofilm-associated cells ([1]; light activation not required) | efficacy against PsA biofilms and planktonic cells ([1]; when photoactivated) | effect on PsA biofilms ([1]; without light activation) | killing of PsA (PsA)
C[n+]1ccc(-c2c3nc(c(-c4cc[n+](C)cc4)c4ccc([nH]4)c(-c4cc[n+](C)cc4)c4nc(c(-c5cc[n+](C)cc5)c5ccc2[nH]5)C=C4)C=C3)cc1.Cc1ccc(S(=O)(=O)[O-])cc1.Cc1ccc(S(=O)(=O)[O-])cc1.Cc1ccc(S(=O)(=O)[O-])cc1.Cc1ccc(S(=O)(=O)[O-])cc1 [TMP, 5,10,15,20-tetrakis(1-methylpyridino)-21H,23H-porphine, tetra-p-tosylate salt] | no effect | little to no toxicity | sensitive to tobramycin, gentamycin, and vancomycin | highly effective | disruption and detachment from the substrata | –
CN[C@H](CC(C)C)C(=O)N[C@H]1C(=O)N[C@@H](CC(N)=O)C(=O)N[C@H]2C(=O)N[C@H]3C(=O)N[C@H](C(=O)N[C@H](C(=O)O)c4cc(O)cc(O)c4-c4cc3ccc4O)[C@H](O)c3ccc(c(Cl)c3)Oc3cc2cc(c3O[C@@H]2O[C@H](CO)[C@@H](O)[C@H](O)[C@H]2O[C@H]2C[C@](C)(N)[C@H](O)[C@H](C)O2)Oc2ccc(cc2Cl)[C@H]1O [Vancomycin, reference compound] | – | – | – | – | – | kills
